Results on 15 molecules are retold here after publication PMC6143291 (The Journal of organic chemistry, 2017).

Values after ≈ are worked out from the molar mass of the structure shown. Where only a bound is given, the exact number is not on record here.

Experiment [1] addresses Mtb Ag85C (Mycobacterium tuberculosis, UniProt P9WQN9). As to the kind of experiment: Fluorometric resorufin butyrate assay, apparent IC50 after 15 min incubation. It counts as biochemical.
The subject of experiment [2] is Mtb H37Rv. As to the kind of experiment: Microplate Alamar blue assay. It counts as cell-based, Mycobacterium tuberculosis. As to conditions: MABA, 2-fold serial dilution, read on day seven. (In general: Alamar Blue is a resazurin reagent that responds to reducing activity.)

Sequence of Mtb Ag85C (P9WQN9 46-340 limits assumed): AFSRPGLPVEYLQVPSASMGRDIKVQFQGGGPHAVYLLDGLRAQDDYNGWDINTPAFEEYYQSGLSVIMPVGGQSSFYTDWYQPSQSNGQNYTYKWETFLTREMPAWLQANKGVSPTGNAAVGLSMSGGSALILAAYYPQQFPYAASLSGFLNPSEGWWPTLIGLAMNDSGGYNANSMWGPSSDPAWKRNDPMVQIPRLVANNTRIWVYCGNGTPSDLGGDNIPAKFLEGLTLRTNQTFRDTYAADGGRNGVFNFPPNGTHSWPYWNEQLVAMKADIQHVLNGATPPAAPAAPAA

Regarding `COc1ccccc1Cn1[se]c2ccccc2c1=O` [1c, 2-(2-Methoxybenzyl)benzo[d][1,2]selenazol-3(2H)-one], the IC50 in experiment [1] came out at 28.6 µM.
Turning to `O=c1c2ccccc2[se]n1C1CCCCC1` [1n, 2-Cyclohexylbenzo[d][1,2]selenazol-3(2H)-one], in experiment [1], the IC50 amounted to 3.7 µM.
For `O=c1c2ccccc2[se]n1Cc1ccccc1` [1e, 2-Benzylbenzo[d][1,2]selenazol-3(2H)-one], the IC50 in experiment [1] was 6.5 µM.
Still for that read-out and setting: the same measure for `O=c1c2ccccc2[se]n1-c1ccc(F)cc1` [1h, 2-(4-Fluorophenyl)benzo[d][1,2]selenazol-3(2H)-one]: 0.72 µM; for `O=c1c2ccccc2[se]n1C1CCCC1` [1m, 2-Cyclopentylbenzo[d][1,2]selenazol-3(2H)-one]: 4.1 µM; for `[N-]=[N+]=Nc1ccc(NC(=O)c2ccccc2[Se]C#Cc2ccccc2)cc1` [compound 8, N-(4-Azidophenyl)-2-((phenylethynyl)selanyl)-benzamide]: > 100 µM.
With `O=C(CCCCC1SC[C@@H]2NC(=O)N[C@H]12)NCCOCCOCCOCCNC(=O)CCC(=O)N1Cc2ccccc2-c2nnn(-c3ccc(-n4[se]c5ccccc5c4=O)cc3)c2-c2ccccc21` (stereo partly drawn) [compound 10, N-(13,16-Dioxo-16-(3-(4-(3-oxobenzo[d][1,2]-selenazol-2(3H)-yl)phenyl)-3,9-dihydro-8H-dibenzo[b,f][1,2,3]-triazolo[4,5-d]azocin-8-yl)-3,6,9-trioxa-12-azahexadecyl)-5-((3aS,6aR)-2-oxohexahydro-1H-thieno[3,4-d]imidazol-4-yl)-pentanamide], in experiment [1], the IC50 stood at 2.02 µM.
On the same count and under the same terms, the result for `COc1ccc(-n2[se]c3ccccc3c2=O)cc1` [1d, 2-(4-Methoxyphenyl)benzo[d][1,2]selenazol-3(2H)-one] reads 1.2 µM; that for `[N-]=[N+]=Nc1ccc(-n2[se]c3ccccc3c2=O)cc1` [1j, 2-(4-Azidophenyl)benzo[d][1,2]selenazol-3(2H)-one], 1.1 µM.
For `O=c1c2ccccc2[se]n1-c1ccccc1F` [1i, 2-(2-Fluorophenyl)benzo[d][1,2]selenazol-3(2H)-one], the IC50 in experiment [1] was found to be 1 µM.
In turn, `O=c1c2ccccc2[se]n1C12CC3CC(CC(C3)C1)C2` [1l, 2-((3R,5S)-Adamantan-1-yl)benzo[d][1,2]-selenazol-3(2H)-one] registered an MIC in experiment [2] of 50 µg/mL (≈ 150 µM).
As to `COc1ccc(Cn2[se]c3ccccc3c2=O)cc1` [1b, 2-(4-Methoxybenzyl)benzo[d][1,2]selenazol-3(2H)-one], in experiment [1], the IC50 stood at 0.54 µM.
`O=c1c2ccccc2[se]n1CC1CCCCC1` [1g, 2-(Cyclohexylmethyl)benzo[d][1,2]selenazol-3(2H)-one]: the IC50 in experiment [1] worked out at 5.3 µM.
Regarding `CC(C)(C)n1[se]c2ccccc2c1=O` [1k, 2-(tert-Butyl)benzo[d][1,2]selenazol-3(2H)-one], in experiment [1], the IC50 was 1.5 µM.
Turning to `O=c1c2ccccc2[se]n1-c1ccccc1` [1a, 2-Phenylbenzo[d][1,2]selenazol-3(2H)-one, reference compound], the IC50 in experiment [1] amounted to 5.12 µM.

For orientation: IC50 means the concentration needed to halve the response being measured. The MIC is the least concentration at which growth counts as inhibited.
